Measurements reported in patent publication US11944626B2, “Small molecule inhibitors of ALDH and uses thereof” (The Regents of the University of Michigan, priority 2016, dated 2024).
Where a name gives a salt, the structure may show the parent alone.

Experiments:
ALDH2 = target: T1, ALDH2 (Homo sapiens, UniProt P05091); assay: Inhibition of ALDH isoenzymes (NAD(P)H formation at 340 nm, purified recombinant enzyme); format: biochemical; parameters: key to ALDH2 inhibition at 20 μM (N.I.): N.I.: No inhibition at 20 μM; conditions: compound at 20 μM; for remaining activity at 20 µM: read-out: ALDH2 % Control at 20 μM;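 for all read-outs here: run at 25 °C, started by adding substrate after 2 min preincubation, with 100-200 nM ALDH2, 200 µM NAD+, 100 µM propionaldehyde, 1% DMSO in BES buffer pH 7.5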
T1 sequence (P05091 18-517): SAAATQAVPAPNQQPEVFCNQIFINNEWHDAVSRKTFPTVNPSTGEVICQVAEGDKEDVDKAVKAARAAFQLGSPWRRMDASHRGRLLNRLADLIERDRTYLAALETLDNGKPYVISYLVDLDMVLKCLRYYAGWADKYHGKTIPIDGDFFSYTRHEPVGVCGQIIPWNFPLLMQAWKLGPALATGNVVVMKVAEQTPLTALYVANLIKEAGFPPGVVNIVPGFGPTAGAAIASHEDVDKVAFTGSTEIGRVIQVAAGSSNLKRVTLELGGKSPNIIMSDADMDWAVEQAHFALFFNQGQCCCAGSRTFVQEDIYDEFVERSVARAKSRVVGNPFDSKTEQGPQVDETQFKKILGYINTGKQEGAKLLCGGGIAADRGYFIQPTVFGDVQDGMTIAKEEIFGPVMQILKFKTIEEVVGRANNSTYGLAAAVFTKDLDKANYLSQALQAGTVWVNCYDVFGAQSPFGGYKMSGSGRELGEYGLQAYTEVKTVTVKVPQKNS

ALDH1A1 = target: T2, ALDH1A1 (Homo sapiens, UniProt P00352); assay: as above; format: biochemical; conditions: for IC50: 100-200 nM enzyme, 200 μM NAD+, 100 μM propionaldehyde, pH 7.5, 25° C.; for remaining activity at 20 µM: compound at 20 μM, read-out: ALDH1A1 % Control at 20 μM
T2 sequence (P00352 1-501): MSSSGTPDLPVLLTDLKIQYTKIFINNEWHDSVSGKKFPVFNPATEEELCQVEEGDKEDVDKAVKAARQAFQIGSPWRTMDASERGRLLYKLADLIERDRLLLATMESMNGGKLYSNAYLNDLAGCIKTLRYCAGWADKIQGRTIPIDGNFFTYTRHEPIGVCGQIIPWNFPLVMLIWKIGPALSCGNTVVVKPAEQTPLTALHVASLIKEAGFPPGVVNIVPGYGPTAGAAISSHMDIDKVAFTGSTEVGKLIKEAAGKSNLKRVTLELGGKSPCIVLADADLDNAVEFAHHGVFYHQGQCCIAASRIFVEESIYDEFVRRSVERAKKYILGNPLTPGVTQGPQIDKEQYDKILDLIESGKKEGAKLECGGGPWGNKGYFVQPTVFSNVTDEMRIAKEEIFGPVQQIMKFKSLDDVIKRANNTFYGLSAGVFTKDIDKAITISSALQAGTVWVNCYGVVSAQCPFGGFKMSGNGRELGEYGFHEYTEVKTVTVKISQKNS

ALDH1A2 = target: T3, ALDH1A2 (Homo sapiens, UniProt O94788); assay: as above; format: biochemical; conditions: for IC50: 100-200 nM enzyme, 200 μM NAD+, 100 μM propionaldehyde, pH 7.5, 25° C.; for remaining activity at 20 µM: compound at 20 μM, read-out: ALDH1A2 % Control at 20 μM
T3 sequence (O94788 1-518): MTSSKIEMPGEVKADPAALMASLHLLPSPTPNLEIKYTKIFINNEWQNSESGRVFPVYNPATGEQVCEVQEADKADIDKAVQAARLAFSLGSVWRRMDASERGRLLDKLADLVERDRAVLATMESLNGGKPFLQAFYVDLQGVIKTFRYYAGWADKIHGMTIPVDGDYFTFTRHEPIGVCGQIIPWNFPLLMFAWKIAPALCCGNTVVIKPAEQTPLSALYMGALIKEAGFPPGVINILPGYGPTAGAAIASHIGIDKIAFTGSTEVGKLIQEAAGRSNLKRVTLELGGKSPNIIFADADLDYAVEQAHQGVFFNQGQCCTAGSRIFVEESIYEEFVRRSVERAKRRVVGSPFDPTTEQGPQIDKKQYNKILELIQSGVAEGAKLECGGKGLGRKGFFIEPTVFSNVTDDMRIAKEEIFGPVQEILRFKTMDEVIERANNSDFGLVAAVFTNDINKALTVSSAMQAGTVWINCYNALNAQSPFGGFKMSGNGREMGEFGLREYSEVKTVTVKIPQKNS

OVSAHO = OVSAHO Cell Viability; format: cell-based; conditions: for OVSAHO Cell Viability (50 μM) % CD133 + % ctrl / OVSAHO Cell Viability (30 μM) % CD133 + % ctrl: CD133+ cells; for OVSAHO Cell Viability (50 μM) Total Cell % ctrl / OVSAHO Cell Viability (30 μM) Total Cell % ctrl: total cells
ALDH1A3 = target: T4, ALDH1A3 (Homo sapiens, UniProt P47895); assay: Inhibition of ALDH isoenzymes (NAD(P)H formation at 340 nm, purified recombinant enzyme); format: biochemical; conditions: for IC50: 100-200 nM enzyme, 200 μM NAD+, 100 μM propionaldehyde, pH 7.5, 25° C.; for remaining activity at 20 µM: compound at 20 μM, read-out: ALDH1A3 % Control at 20 μM
T4 sequence (P47895 1-512): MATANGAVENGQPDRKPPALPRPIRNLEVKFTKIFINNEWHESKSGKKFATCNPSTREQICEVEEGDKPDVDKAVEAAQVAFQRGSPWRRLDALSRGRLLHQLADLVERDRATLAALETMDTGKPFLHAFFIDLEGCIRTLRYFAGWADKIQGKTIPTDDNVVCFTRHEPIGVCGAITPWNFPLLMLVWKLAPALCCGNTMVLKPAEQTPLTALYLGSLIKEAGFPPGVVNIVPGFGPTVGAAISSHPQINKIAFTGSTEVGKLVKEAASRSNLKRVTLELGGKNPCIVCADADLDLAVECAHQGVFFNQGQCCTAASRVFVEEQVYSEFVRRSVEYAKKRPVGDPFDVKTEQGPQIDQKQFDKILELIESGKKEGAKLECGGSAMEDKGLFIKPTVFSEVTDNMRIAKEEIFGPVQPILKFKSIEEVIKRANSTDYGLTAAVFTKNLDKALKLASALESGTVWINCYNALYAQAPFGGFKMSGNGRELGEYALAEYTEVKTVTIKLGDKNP

ALDH2 inhibition at 20 μM (N.I.) (ALDH2)	IC50 (ALDH1A1) [nM]	IC50 (ALDH1A2) [nM]	IC50 (ALDH1A3) [nM]	remaining activity at 20 µM (ALDH2) [%]	remaining activity at 20 µM (ALDH1A1) [%]	remaining activity at 20 µM (ALDH1A2) [%]	remaining activity at 20 µM (ALDH1A3) [%]	remaining activity at 5 µM (ALDH1A2; compound at 5 μM (footnote *), read-out: ALDH1A2 % Control at 5 μM) [%]	remaining activity at 5 µM (ALDH1A3; compound at 5 μM (footnote *), read-out: ALDH1A3 % Control at 5 μM) [%]	SMILES	OVSAHO Cell Viability (50 μM) % CD133 + % ctrl (OVSAHO) [% ctrl]	OVSAHO Cell Viability (50 μM) Total Cell % ctrl (OVSAHO) [% ctrl]	OVSAHO Cell Viability (30 μM) % CD133 + % ctrl (OVSAHO) [% ctrl]	OVSAHO Cell Viability (30 μM) Total Cell % ctrl (OVSAHO) [% ctrl]
N.I.	1700	> 10000	> 10000							Cc1ccccc1-n1c(OCc2cc3ccccc3s2)nc2c(cnn2C)c1=O [Example 40, 6-(benzo[b]thiophen-2-ylmethoxy)-1-methyl-5-(o-tolyl)-1H-pyrazolo[3,4-d]pyrimidin-4(5H)-one]	50	15		
				97	7	21	4			CC1(Cn2cc3c(=O)n(-c4ccccc4)c(SCc4cccc(F)c4)nc3n2)COC1 [Example 67, 6-((3-fluorobenzyl)thio)-2-((3-methyloxetan-3-yl)methyl)-5-phenyl-2H-pyrazolo[3,4-d]pyrimidin-4(5H)-one]			100	16
	320	400	250	82						CCn1ncc2c(=O)n(-c3ccccc3)c(SCc3cccc(F)c3)nc21 [Example 14, 1-ethyl-6-((3-fluorobenzyl)thio)-5-phenyl-1H-pyrazolo[3,4-d]pyrimidin-4(5H)-one]	39	13		
				90	-5	-14	-10			CCC(Sc1nc2c(cnn2C)c(=O)n1-c1ccccc1)c1ccccc1 (stereo not drawn) [Example 70, 1-methyl-5-phenyl-6-((1-phenylpropyl)thio)-1H-pyrazolo[3,4-d]pyrimidin-4(5H)-one]			56	17
	2280			102				43	61	O=c1c2cn(CC3COC3)nc2nc(OCc2cccc(F)c2)n1-c1ccccc1 [Example 63]			81	18
	73	1720	1750	100						Cn1ncc2c(=O)n(-c3ccccc3)c(SCc3cccc(C(=O)C(F)(F)F)c3)nc21 [Example 57, 1-methyl-5-phenyl-6-((3-(2,2,2-trifluoroacetyl)benzyl)thio)-1H-pyrazolo[3,4-d]pyrimidin-4(5H)-one]			84	29
	4100			88		92	100			Cn1ncc2c(=O)n(-c3ccccc3O)c(SCc3cccc(F)c3)nc21 [Example 33, 6-((3-fluorobenzyl)thio)-5-(2-hydroxyphenyl)-1-methyl-1H-pyrazolo[3,4-d]pyrimidin-4(5H)-one]	92	18		
				95	18	19	9			C[C@H](Sc1nc2c(cnn2C)c(=O)n1-c1ccccc1)c1ccccc1 [Example 69, (S)-1-methyl-5-phenyl-6-((1-phenylethyl)thio)-1H-pyrazolo[3,4-d]pyrimidin-4(5H)-one]			80	25
				93	14	14	10			O=c1c2cn(CC3CNC3)nc2nc(SCc2cccc(F)c2)n1-c1ccccc1 [Example 68, 3-((6-((3-fluorobenzyl)thio)-4-oxo-5-phenyl-4,5-dihydro-2H-pyrazolo[3,4-d]pyrimidin-2-yl)methyl)azetidin-1-ium sulfate]				16
	172	600	153	98						CCn1cc2c(=O)n(-c3ccccc3)c(SCc3cccc(F)c3)nc2n1 [Example 15, 2-ethyl-6-((3-fluorobenzyl)thio)-5-phenyl-2H-pyrazolo[3,4-d]pyrimidin-4(5H)-one]	83	51		
	1200	940	390	96						CC(C)CCSc1nc2c(cnn2C)c(=O)n1-c1ccccc1 [Example 38, 6-(isopentylthio)-1-methyl-5-phenyl-1H-pyrazolo[3,4-d]pyrimidin-4(5H)-one]	50	39		
				94	-4	-8	-10			CC(Sc1nc2c(cnn2C)c(=O)n1-c1ccccc1)c1cccc(F)c1 (stereo not drawn) [Example 71, 6-((1-(3-fluorophenyl)ethyl)thio)-1-methyl-5-phenyl-1H-pyrazolo[3,4-d]pyrimidin-4(5H)-one]				
